# Assay results published in the supplement of paper PMC10307832.
# Tests used:
# Test in all cases: relative viability (nuclei count vs DMSO), 5 days (fraction); higher = more cells survive
# Afatinib + Olaparib = compound: CN(C)C/C=C/C(=O)Nc1cc2c(Nc3ccc(F)c(Cl)c3)ncnc2cc1O[C@H]1CCOC1 [Afatinib] + O=C(c1cc(Cc2n[nH]c(=O)c3ccccc23)ccc1F)N1CCN(C(=O)C2CC2)CC1 [Olaparib] (partner 8 µM)
# Outline: (§1)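 Each reported value is a median over duplicate plates. It expresses relative viability: treated-well nuclei count divided by vehicle-well nuclei count. Lung cancer cell lines in 1536-well plates were dosed by pin tool a day after seeding, alone with one drug or with a fixed anchor-drug dose plus five library-drug doses (not always all listed) in √10 steps, and nuclei were counted after 5 days.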
# Afatinib + Phenformin = compound: CN(C)C/C=C/C(=O)Nc1cc2c(Nc3ccc(F)c(Cl)c3)ncnc2cc1O[C@H]1CCOC1 [Afatinib] + N=C(N)NC(=N)NCCc1ccccc1 [Phenformin] (partner 250 µM)
# Outline: as §1
# Afatinib + Lapatinib = compound: CN(C)C/C=C/C(=O)Nc1cc2c(Nc3ccc(F)c(Cl)c3)ncnc2cc1O[C@H]1CCOC1 [Afatinib] + CS(=O)(=O)CCNCc1ccc(-c2ccc3ncnc(Nc4ccc(OCc5cccc(F)c5)c(Cl)c4)c3c2)o1 [Lapatinib] (partner 2 µM)
# Outline: as §1
# Afatinib + Trametinib = compound: CN(C)C/C=C/C(=O)Nc1cc2c(Nc3ccc(F)c(Cl)c3)ncnc2cc1O[C@H]1CCOC1 [Afatinib] + CC(=O)Nc1cccc(-n2c(=O)n(C3CC3)c(=O)c3c(Nc4ccc(I)cc4F)n(C)c(=O)c(C)c32)c1 [Trametinib] (partner 0.02 µM)
# Outline: as §1
Cell Line,relative viability (Afatinib + Olaparib; first compound 0.005 µM),relative viability (Afatinib + Olaparib; first compound 0.01581 µM),relative viability (Afatinib + Olaparib; first compound 0.05 µM),relative viability (Afatinib + Olaparib; first compound 0.1581 µM),relative viability (Afatinib + Olaparib; first compound 0.5 µM),relative viability (Afatinib + Phenformin; first compound 0.005 µM),relative viability (Afatinib + Phenformin; first compound 0.01581 µM),relative viability (Afatinib + Phenformin; first compound 0.05 µM),relative viability (Afatinib + Phenformin; first compound 0.1581 µM),relative viability (Afatinib + Phenformin; first compound 0.5 µM),relative viability (Afatinib + Lapatinib; first compound 0.005 µM),relative viability (Afatinib + Lapatinib; first compound 0.01581 µM),relative viability (Afatinib + Lapatinib; first compound 0.05 µM),relative viability (Afatinib + Lapatinib; first compound 0.1581 µM),relative viability (Afatinib + Lapatinib; first compound 0.5 µM),relative viability (Afatinib + Trametinib; first compound 0.005 µM),relative viability (Afatinib + Trametinib; first compound 0.01581 µM),relative viability (Afatinib + Trametinib; first compound 0.05 µM),relative viability (Afatinib + Trametinib; first compound 0.1581 µM),relative viability (Afatinib + Trametinib; first compound 0.5 µM)
NCI-H661,0.811,0.732,0.638,0.589,0.637,0.292,0.255,0.253,0.247,0.244,0.682,0.469,0.573,0.454,0.443,0.52,0.415,0.457,0.367,0.369
NCI-H1993,0.828,0.883,0.641,0.557,0.704,0.596,0.645,0.656,0.639,0.589,0.835,0.848,1.11,1.01,0.848,0.593,0.442,0.58,0.546,0.53
NCI-H1437,0.657,0.64,0.642,0.596,0.569,0.333,0.294,0.334,0.358,0.302,0.891,0.79,0.758,0.778,0.779,0.434,0.413,0.472,0.414,0.434
UMC-11,0.386,0.402,0.405,0.368,0.394,0.358,0.33,0.324,0.314,0.303,1.07,0.919,0.846,0.802,1,0.73,0.732,0.667,0.7,0.908
201T,0.846,0.826,0.752,0.78,0.854,0.475,0.444,0.43,0.398,0.387,1.07,1.04,0.904,1.01,1.08,0.688,0.709,0.712,0.673,0.673
NCI-H358,0.48,0.586,0.314,0.145,,0.266,0.171,0.171,0.163,0.175,0.502,0.356,0.408,0.436,0.432,0.119,0.115,0.13,0.102,0.127
NCI-H1650,0.784,0.708,0.804,0.712,0.547,0.368,,0.351,0.308,0.308,0.903,,1.09,0.772,0.598,0.431,0.357,0.475,0.484,0.365
LOU-NH91,0.701,0.704,0.701,0.687,0.742,0.342,0.45,0.477,0.394,0.548,0.76,0.754,0.806,0.736,0.683,0.718,0.683,0.718,0.671,0.727
HOP-62,0.624,0.329,0.606,0.439,0.423,0.862,0.561,0.748,0.719,0.629,1.12,1.12,1.11,1.03,1.09,0.354,0.38,0.419,0.333,0.378
NCI-H1915,0.255,,0.244,0.27,0.259,0.389,0.379,0.363,0.378,0.33,1.02,0.944,0.994,0.959,0.876,0.309,0.304,0.314,0.3,0.301
NCI-H3122,0.619,0.628,0.57,0.632,0.68,0.385,0.382,0.415,0.363,0.423,1.03,1.02,1.05,0.992,1.04,0.186,0.192,0.224,0.248,0.223
NCI-H1651,0.173,0.186,0.179,0.17,0.21,0.368,0.333,0.288,0.329,0.332,0.925,0.841,0.763,0.834,0.803,0.856,0.862,0.838,0.808,0.785
NCI-H838,0.803,0.723,0.819,0.757,0.815,0.675,0.54,0.582,0.567,0.553,0.986,0.953,1.07,1.08,1.06,0.585,0.434,0.523,0.525,0.685
NCI-H596,0.706,0.707,0.697,0.58,0.685,0.804,0.804,0.729,0.753,0.685,1.09,1.08,1.09,1.02,1.02,0.783,0.725,0.834,0.782,0.797
SK-LU-1,0.49,0.447,0.414,0.492,0.452,0.634,0.536,0.605,0.511,0.47,1.33,0.89,0.803,0.941,0.915,0.504,0.405,0.604,0.526,0.483
NCI-H650,0.339,0.429,0.441,0.407,0.399,0.498,0.46,0.446,0.498,0.351,1.01,0.844,1.19,1.21,0.684,0.947,0.983,0.991,0.969,1.01

Cell Line,relative viability (Afatinib + Olaparib; first compound 0.005 µM),relative viability (Afatinib + Olaparib; first compound 0.01581 µM),relative viability (Afatinib + Olaparib; first compound 0.05 µM),relative viability (Afatinib + Olaparib; first compound 0.1581 µM),relative viability (Afatinib + Olaparib; first compound 0.5 µM),relative viability (Afatinib + Phenformin; first compound 0.005 µM),relative viability (Afatinib + Phenformin; first compound 0.01581 µM),relative viability (Afatinib + Phenformin; first compound 0.05 µM),relative viability (Afatinib + Phenformin; first compound 0.1581 µM),relative viability (Afatinib + Phenformin; first compound 0.5 µM),relative viability (Afatinib + Lapatinib; first compound 0.005 µM),relative viability (Afatinib + Lapatinib; first compound 0.01581 µM),relative viability (Afatinib + Lapatinib; first compound 0.05 µM),relative viability (Afatinib + Lapatinib; first compound 0.1581 µM),relative viability (Afatinib + Lapatinib; first compound 0.5 µM),relative viability (Afatinib + Trametinib; first compound 0.005 µM),relative viability (Afatinib + Trametinib; first compound 0.01581 µM),relative viability (Afatinib + Trametinib; first compound 0.05 µM),relative viability (Afatinib + Trametinib; first compound 0.1581 µM),relative viability (Afatinib + Trametinib; first compound 0.5 µM)
SK-MES-1,0.682,0.489,0.325,0.334,0.404,0.547,0.64,0.389,0.332,0.369,0.423,0.393,0.459,0.444,0.467,0.424,0.317,0.349,0.307,0.42
NCI-H1792,0.437,0.531,0.506,0.526,0.489,0.16,0.198,0.398,0.2,0.238,0.999,0.783,0.825,0.972,0.971,0.56,0.393,0.562,0.538,0.427
NCI-H1355,0.723,0.768,0.713,0.716,0.67,0.484,0.491,0.482,0.424,0.421,1.03,1.08,1,0.945,1.03,0.366,0.428,0.381,0.306,0.341
SW 1573,0.624,0.485,0.486,0.421,0.408,0.387,0.376,0.353,0.299,0.393,1.03,1.09,1.14,1.07,1.27,0.524,0.551,0.616,0.526,0.53
NCI-H2347,0.571,0.699,0.595,0.566,0.578,0.357,0.456,0.31,0.381,0.415,0.934,0.985,0.832,0.987,0.996,0.27,0.292,0.277,0.275,0.283
LCLC-97TM1,0.424,0.351,0.348,0.273,0.397,0.439,0.398,0.438,0.404,0.391,1.11,0.837,1.11,0.688,0.568,0.17,0.215,,0.153,0.171
EMC-BAC-2,0.53,0.501,0.595,0.554,0.531,0.502,0.512,0.563,0.462,0.476,0.888,0.858,0.892,0.941,0.91,0.945,0.888,0.823,0.873,0.872
NCI-H1975,0.917,0.771,0.778,0.59,0.321,0.444,0.413,0.373,0.223,0.166,0.895,0.685,0.529,0.283,0.239,0.342,0.288,0.407,0.242,0.195
BEN,1.23,1.23,1.18,1.11,1.08,0.29,0.261,0.251,0.253,0.286,0.7,0.694,0.832,0.705,0.804,1.01,1.1,1.11,0.948,1.01
NCI-H23,0.331,0.303,0.37,0.291,0.333,0.847,0.825,0.808,0.772,0.718,1.34,1.23,1.08,1.04,1.01,0.358,0.323,0.359,0.331,0.345
NCI-H520,0.313,0.32,0.329,0.365,0.368,0.562,0.593,0.689,0.609,0.57,0.857,0.78,0.918,0.903,0.687,0.892,0.633,0.725,0.734,0.545
CAL-12T,0.763,0.668,0.616,0.47,0.497,0.57,0.388,0.361,0.244,0.407,0.694,0.757,0.714,0.546,0.638,0.278,0.273,0.286,0.247,0.261
EPLC-272H,0.567,0.776,0.727,0.734,0.595,0.35,0.272,0.231,0.24,0.264,0.941,0.826,0.941,0.863,0.924,0.251,0.265,,0.229,0.27
NCI-H2405,0.885,0.934,0.864,0.874,0.852,0.339,0.413,0.435,0.363,0.392,1.11,1.09,1.33,1.04,1.07,0.597,0.482,0.529,0.537,0.594
HCC-15,0.662,0.765,0.744,0.668,0.722,0.487,0.487,0.488,0.47,0.517,0.84,0.92,0.859,0.859,0.82,0.338,0.393,0.325,0.35,0.344
PC-3 [JPC-3],0.608,0.453,0.472,0.456,0.476,0.338,0.338,0.258,0.285,0.306,0.445,0.425,0.428,0.472,0.416,0.441,0.4,0.443,0.285,0.438
